The text below walks through data of US20060009805A1, “Neural stimulation device employing renewable chemical stimulation” (priority 2004, published 2006).

For series [1] the following is noted: cited from earlier work.
In series [2] the test system is rabbit retinal ganglion cells. In words: Single cell recordings from axons of retinal ganglion cells stimulated by focal ejection of K+ (KCl) from a micropipette. It counts as cell-based. Here is the method: Single cell recordings were made from the axons of rabbit retinal ganglion cells in vitro. Data was recorded and analyzed using Spike2 (Cambridge Electronic Design). The ganglion cells were stimulated over the optical receptive field with a multibarrel micropipette (7-barrel, FHC, Inc.) which contained various concentrations of KCl (0-30 mM in an osmotically balanced NaCl solution (˜300 mOsm). The micropipette solutions were ejected by using a mulitchannel pressure ejector (PM8000, MDI Systems). All solutions contained Azure B (0.5 mg/ml) to enable visualization of the solution being ejected. Pulse durations of 20-100 msecs were used.
Response is shown for a cell stimulated with a 20 msec pulse of 10 mM K^+, pressure of 40 p.s.i. and a volume of approximately 100 pL. […] A modest increase (10 mM) in K^+ concentration increases the spike count from 35 to 80 spikes. Further increases in concentration to 15 mM and 30 mM increases the spike rate to 240 and 272 spikes, respectively. […] The histograms are summed responses from 10 trials as indicated by the raster plot.
Data was collected from 5 cells and the total spike count was obtained from the PSTH. The spontaneous activity (control record) was subtracted, divided by the number of repetitions and the median is plotted. The error bars shown are the standard deviations normalized by the median.
The large secondary lobe in the potassium response may be due to the fluid flow pattern that may have stimulated adjacent cells. Overall receptive field size is […] for a light evoked response.

With `O=C(O)[C@H](O)[C@@H](O)[C@H](O)[C@H](O)CO` [Gluconic acid, gluconic acid], in series [1], the pKa was roughly 3.6.
In series [2] (30 mM [K+]), `[K+]` [K^+] registered an overall receptive field size, potassium evoked response of 400 µm and a receptive field size, primary lobe, potassium evoked response of 100 µm. Besides, the “increase in background K+ concentration sufficient to excite the firing of an action potential by retinal ganglion cells” value in series [2] (rabbit retina, in vitro) is listed as roughly 10 mM. Also, the “spike count (PSTH, summed responses from 10 trials)” value in series [2] (representative cell, 10 mM K+, count without K+ increase 35) was determined as 80 spikes. In addition, the “spike count (PSTH, summed responses from 10 trials; given as spike rate)” value in series [2] (representative cell, 15 mM K+) came to 240 spikes. The “spike count (PSTH, summed responses from 10 trials; given as spike rate)” value in series [2] (representative cell, 30 mM K+) is listed as 272 spikes.

As usually defined, the pKa is the pH at which an ionisable group is half protonated.
